The values that follow come from ChEMBL document CHEMBL2074138, “New multidrug-resistance-reversing drugs, MS-209 and SDZ PSC 833” (Cancer Chemother Pharmacol, 1997).

The structures appear in SMILES notation.

This data set has as its target ATP-dependent translocase ABCB1 (Homo sapiens, UniProt P08183). The data set can be described thus: TP_TRANSPORTER: increase in Doxorubicin intracellular accumulation (Doxorubicin: 0.05 ug/mL, MS-209: 3 uM) in K562/ADM cells. Format: functional, cell-based. The conditions noted are these: k562/adr.

Sequence of ATP-dependent translocase ABCB1 (P08183 whole entry): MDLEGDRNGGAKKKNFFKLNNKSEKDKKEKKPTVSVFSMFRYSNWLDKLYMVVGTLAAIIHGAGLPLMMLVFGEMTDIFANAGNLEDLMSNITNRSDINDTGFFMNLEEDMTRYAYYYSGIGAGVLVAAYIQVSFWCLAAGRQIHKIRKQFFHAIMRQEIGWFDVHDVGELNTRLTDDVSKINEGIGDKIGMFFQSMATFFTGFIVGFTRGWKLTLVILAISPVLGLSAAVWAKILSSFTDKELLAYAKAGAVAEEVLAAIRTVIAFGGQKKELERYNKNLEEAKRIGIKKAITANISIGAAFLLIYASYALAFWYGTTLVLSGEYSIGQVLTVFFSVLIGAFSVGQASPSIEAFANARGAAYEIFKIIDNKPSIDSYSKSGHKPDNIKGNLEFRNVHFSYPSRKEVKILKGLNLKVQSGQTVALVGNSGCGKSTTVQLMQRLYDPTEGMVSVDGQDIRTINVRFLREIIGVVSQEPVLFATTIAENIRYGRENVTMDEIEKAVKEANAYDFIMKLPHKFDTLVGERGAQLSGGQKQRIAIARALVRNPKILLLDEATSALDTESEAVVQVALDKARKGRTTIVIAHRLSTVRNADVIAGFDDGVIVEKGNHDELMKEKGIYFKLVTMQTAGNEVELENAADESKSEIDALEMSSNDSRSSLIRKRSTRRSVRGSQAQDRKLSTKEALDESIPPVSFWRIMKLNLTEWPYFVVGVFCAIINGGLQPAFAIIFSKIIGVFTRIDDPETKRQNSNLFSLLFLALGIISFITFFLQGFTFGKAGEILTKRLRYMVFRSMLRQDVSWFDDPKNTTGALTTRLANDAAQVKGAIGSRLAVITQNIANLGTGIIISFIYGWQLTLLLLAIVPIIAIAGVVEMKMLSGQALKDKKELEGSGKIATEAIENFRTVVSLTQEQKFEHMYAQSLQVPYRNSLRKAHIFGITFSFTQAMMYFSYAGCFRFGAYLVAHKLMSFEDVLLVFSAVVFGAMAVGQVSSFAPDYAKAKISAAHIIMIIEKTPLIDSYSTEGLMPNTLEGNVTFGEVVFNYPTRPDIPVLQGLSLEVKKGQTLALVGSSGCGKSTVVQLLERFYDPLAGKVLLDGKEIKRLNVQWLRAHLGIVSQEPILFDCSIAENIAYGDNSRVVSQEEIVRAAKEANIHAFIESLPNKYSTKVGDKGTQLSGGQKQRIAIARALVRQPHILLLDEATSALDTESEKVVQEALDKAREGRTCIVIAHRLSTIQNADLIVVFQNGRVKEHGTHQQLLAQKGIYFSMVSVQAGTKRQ

As for `O=C(C(c1ccccc1)c1ccccc1)N1CCN(C[C@@H](O)COc2cccc3ncccc23)CC1`, the Activity entry is “inhibitor [+]”.
